Assays:
Type in all cases: functional, cell-based
Vero [1] = test: In vitro antiviral activity against HSV-2 in vero cells by a plaque reduction assay at concentration up to 10 ug/mL; devoid of activity; conditions: Chlorocebus sabaeus
Vero [2] = test: In vitro antiviral activity against HSV-1 in vero cells by a plaque reduction assay at concentration up to 10 ug/mL; devoid of activity; conditions: Chlorocebus sabaeus
MT4 = test: In vitro […] against HIV-1 in MT-4 cells by indirect an immunofluorescence assay at concentration up to 100 ug/mL; devoid of activity; conditions: Homo sapiens

Measured: Activity

Nc1ncnc2c1ncn2C1OC(C(O)P(=O)(O)O)C1CO (configuration not stated)
devoid of activity: Vero [1] | Vero [2] | MT4

Nc1ncnc2c1ncn2C1OC(CCCP(=O)(O)O)C1CO (configuration not stated)
devoid of activity: Vero [1] | Vero [2] | MT4

Nc1ncnc2c1ncn2C1OC(CCP(=O)(O)O)C1CO (configuration not stated)
devoid of activity: Vero [1] | Vero [2] | MT4

Nc1ncnc2c1ncn2C1OC(/C=C/P(=O)(O)O)C1CO (configuration not stated)
devoid of activity: Vero [1] | Vero [2] | MT4

Source: ChEMBL document CHEMBL1153662, “Synthesis and antiviral activity of alkylphosphonic acid derivatives of oxetanocin-A” (Bioorg Med Chem Lett, 1994)
